Patent publication US20060165761A1, “Wound dressings comprising vanadate complexed with organic ligands” (priority 2002, published 2006)

Experiments:
Adult dermal fibroblasts [1] = assay: XTT cell proliferation assay; format: cell-based; conditions: for amount of fibroblast proliferation (FIG. 2): 72 hrs; for ability to stimulate cell proliferation (overall summary): absence of growth factors
Experimental: (§1) Adult dermal fibroblasts were grown until 95% confluent, trypsinized (2 ml trypsin plate) to prepare a single suspension of fibroblasts. These cells were diluted in DMEM (+10% FBS) media and diluted to a concentration of 25000 cells/ml. […] was placed in each well of a 96 well microplate (2500 cells/well). The fibroblasts were allowed to adhere and spread by incubating for 24 hours (at 37° C., 5% CO2 in a humidified atmosphere) at which point the media was removed and replaced with serum free DMEM+/−stimulant/sample.
(§2) The following vanadate complexes were added in quadruplicate: bpV(pic) was added to a final concentration of 8.14 and 0.81 μM, bpV(bipy) (bisperoxo(bipyridine)oxovanadate) was added to a final concentration of 178 and 17.8 μM. bpV(phen) was added to a final concentration of 12 or 0.124 μM, DMHV (bis-dimethylhydroxamido vanadate, (Me2N—O)2VO(OH)) was added to a final concentration of […]. The vanadate complexes were all obtained as the solid potassium salts from Calbiochem, Catalog numbers 203705, 322130, and 203695.
Negative control samples were untreated and positive control samples were cells treated with DMEM containing 10% FBS or 0.15 ng/ml epidermal growth factor. As a further positive control, Dephostatin (a known tyrosine protein phosphatase inhibitor obtained from Calbiochem, catalog number 263200) was added to a final concentration of 23.8 μM. […]
After 72 hrs the fluid was aspirated off and […] of the XTT labelling mixture (prepared by adding 0.1 ml Electron coupling reagent to every 5 mls of XTT labelling reagent) was added to each well. The plates were read at 450 nm, using a MR5000 plate reader at 2, 2.5 and 3.5 hrs.

Adult dermal fibroblasts [2] = assay: Determination of collagen levels (ELISA) deposited by fibroblasts; format: cell-based; conditions: for ability to stimulate collagen deposition (overall summary): absence of growth factors
Experimental: as §1, §2
Negative control samples were untreated and positive control samples were cells treated with DMEM containing 10% FBS or 0.15 ng/ml epidermal growth factor. As a further positive control, Dephostatin (a known tyrosine protein phosphatase inhibitor obtained from Calbiochem, catalog number 263200) was added to a final concentration of 23.8 μM.
Additional experiments were performed using the phosphatase inhibitors indicated above in the presence of epidermal growth factor (0.015 ng/ml) or platelet derived growth factor (6 ng/ml).
The amount of collagen produce and deposited into the extracellular environment under each experimental condition was measured using an ELISA method. Collagen type I standards (Sigma cat no 7774, lot 32K3775) and material aspirated from the fibroblasts were coated onto 96 well plates (FALCON 3072) by incubation at 37° C. for 30 min. Non-specific sites were blocked by the addition of […] of 5% solution of bovine serum albumin (BSA) for 30 min. Each well was incubated with a monoclonal antibody against collagen used at a dilution of 1/2000 ((sigma cat no. 2456, lot 081K4897) overnight at 4° C. Samples were washed five times for 5 minutes in wash buffer (PBS+0.05% (v/v) TWEEN-20) and incubated with an HRP-conjugated second antibody against mouse IgG at a dilution of 1/10000 for 2 hr. Each well was washed five times in wash buffer. Deposited collagen was detected using the Sigma FAST method used according to the manufacturers instructions. The plates were incubated at room temperature for 30 minutes and read using a MR5000 plate reader at 450 nm.

bone cell = conditions: in vitro; cited from earlier work
acute wounds in rats = conditions: vanadate ingestion; cited from earlier work
[3] = tested on: capillary endothelial cells; conditions: in vitro; mimics fibroblast growth factor; cited from earlier work

Bisperoxo (5-hydroxy pyridine-2-carboxyvanadate) [bpV(pic)]
amount of fibroblast proliferation (FIG. 2) (Adult dermal fibroblasts [1]; 8.14 μM, compared to non treated negative control and FBS and EGF positive controls): most effective activator cell proliferation
amount of fibroblast proliferation (FIG. 3) (Adult dermal fibroblasts [1]; 8.14 μM, compared to non treated and vanadate at 0.1 and 0.01 mmolar): more effective activator of cell proliferation
ability to stimulate cell proliferation (overall summary) (Adult dermal fibroblasts [1]): more effective than even the 10% FBS positive control
amount of collagen deposited by fibroblasts (FIG. 1) (Adult dermal fibroblasts [2]; 8.14 μm, compared to non treated negative control and FBS and EGF positive controls): most effective activator of collagen deposition
ability to stimulate collagen deposition (overall summary) (Adult dermal fibroblasts [2]): more effective than even the 10% FBS positive control

CN(C)[O][V](=[O])([OH])[O]N(C)C [DMHV, bis-dimethylhydroxamido vanadate, (Me2N—O)2VO(OH)]
amount of fibroblast proliferation (FIG. 2) (Adult dermal fibroblasts [1]; 64 μM, compared to negative control): greater than the negative control
ability to stimulate cell proliferation (overall summary) (Adult dermal fibroblasts [1]): equivalent to the DMHV positive control
amount of collagen deposited by fibroblasts (FIG. 1) (Adult dermal fibroblasts [2]; 6.4-64 μM, compared to positive control): equivalent to the positive control
ability to stimulate collagen deposition (overall summary) (Adult dermal fibroblasts [2]): equivalent to the DMHV positive control

[O-2].[O-][O-].[O-][O-].[V+5].c1cnc2c(c1)ccc1cccnc12 [bpV(phen), bisperoxo-(1,10-phenanthroline)-oxovanadate]
ability to stimulate cell proliferation (overall summary) (Adult dermal fibroblasts [1]; listed as bpV (Phen)): inhibitor of proliferation
ability to stimulate cell proliferation (overall summary) (Adult dermal fibroblasts [1]; listed as bpV (phen)): exception
ability to stimulate cell proliferation (overall summary) (Adult dermal fibroblasts [1]; listed as bpV(Phen)): does not enhance
ability to stimulate collagen deposition (overall summary) (Adult dermal fibroblasts [2]; listed as bpV (phen)): exception
ability to stimulate collagen deposition (overall summary) (Adult dermal fibroblasts [2]; listed as bpV(Phen)): does not enhance

bisperoxo(bipyridine)oxovanadate [bpV(bipy)]
amount of fibroblast proliferation (FIG. 2) (Adult dermal fibroblasts [1]; 17.8 μM, compared to negative control): greater than the negative control
amount of collagen deposited by fibroblasts (FIG. 1) (Adult dermal fibroblasts [2]; 17.8 μM, compared to positive control): equivalent to the positive control

CN(N=O)c1cc(O)ccc1O [Dephostatin, reference compound]
amount of fibroblast proliferation (FIG. 2) (Adult dermal fibroblasts [1]; 23.8 μM, compared to negative control): greater than the negative control
amount of collagen deposited by fibroblasts (FIG. 1) (Adult dermal fibroblasts [2]; 23.8 μM, compared to positive control): equivalent to the positive control

[Na+].[Na+].[Na+].[O]=[V]([O-])([O-])[O-] [vanadate, Sodium Orthovanadate]
bone cell proliferation (bone cell): stimulates
bone collagen synthesis (bone cell): stimulates
gain in wound breaking strength (acute wounds in rats): increases
organisation of collagen fibres during healing (acute wounds in rats): better organised collagen fibres
endothelial cells invade collagen matrices and organise into tubules [3]: stimulates endothelial cells to invade collagen matrices and organise into tubules
